Converted amounts (≈) assume the structure as drawn.
Assays:
Trichophyton rubrum = test: Example J: Trichophyton rubrum growth inhibition, scoring by eye; format: cell-based; conditions: Trichophyton rubrum, 144 h; 6 days at 30° C., tested 6 to 40 μM; read-out: MIC, μM (maximum inhibition concentration, scoring by eye)
Outline: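 Filtered T. rubrum suspension from PDA plates (grown 4 days, 30 °C) treated with diluted compounds in triplicate, incubated 6 days at 30 °C. Plates imaged; MIC scored by eye.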

[1] = tested on: Cryptococcus neoformans (serotype D); test: Example K: Cryptococcus neoformans (serotype D) growth inhibition; format: cell-based; conditions: Cryptococcus deneoformans, OD of 48 hour reading, 37° C., tested 4 to 60 μM, XLfit
[2] = tested on: Candida albicans strain 3153; test: Example H: Candida albicans growth inhibition (OD 600 nm); format: cell-based
Outline: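 Growth inhibition computed as % versus DMSO control from OD600 after ~24 h at 30° C. Inoculum: washed overnight YPD culture of strain 3153 at 3.5×10^4 CFU/ml in YPD; final compound concentrations 0, 5, 10, 16, 22, 30, 40 μM, duplicate wells.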

[3] = tested on: 4T1 murine breast cancer cells; test: Example S: in vitro anticancer screen, 4T1 cells, Wst1; format: cell-based, mouse; conditions: Mus musculus, 4T1, 18 h, 18 hr, Wst1
Outline: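 Read-out is Wst1 absorbance (450 nm, reference 630 nm) after roughly 2 hr dye incubation, giving percent cell survival versus vehicle. Before that, compounds at 1 μM or 5 μM were applied for 18 hr to 4T1 cells plated at 1×10^4 per well.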

THP-1 cells = test: Example D: LPS-triggered THP-1 cell death assay, acute/5-hour and chronic/48-hour; format: cell-based, Human; conditions: 10 ng/ml LPS, 0.1 μM test compound, 48 hours
Procedure: Compounds of the invention were tested at 0.1 μM versus AC in the LPS-triggered THP-1 cell death assay. Both acute/5-hour and chronic/48-hour phases of cell death were assessed. Compounds were screened in batches with DMSO as the negative control and AC as the high activity control.

Compound: CCCCCCOCCCCCCCCNc1ccnc2c(Cl)cccc12 [Compound AX, 8-Chloro-N-[8-(hexyloxy)octyl]quinolin-4-amine]
- MIC (Trichophyton rubrum): 6 µM (≈ 2.35 µg/mL)
- IC50 ([1]; read-out: IC50 (concentration for 50% of inhibition)): 1.06 µM
- MIC ([1]; read-out: MIC (concentration for maximum-99% of inhibition)): 10.6 µM (≈ 4.13 µg/mL)
- MIC ([2]; Candida albicans, 3153, 24 hrs at 30° C., YPD, XLfit, read-out: MIC (uM) (99% of inhibition of fungal growth)): 26.6 µM (≈ 10.4 µg/mL)
- IC50 ([2]; Candida albicans, 3153, read-out: IC50 (uM) (50% inhibition of fungal growth), 24 hrs at 30° C., YPD, XLfit): 11.2 µM
- viability at 1 µM ([3]; 1 μM, read-out: 4T1 1 μM, percent of cancer cell survival relative to vehicle treated cells): 24.3%
- viability at 5 µM ([3]; 5 μM, read-out: 4T1 5 μM, percent of cancer cell survival relative to vehicle treated cells): 18%
- Viable cell percent change, Chronic/48-hour, Mean (THP-1 cells): 18.20%
